According to ChEMBL document CHEMBL1133033, “Targeting the dimerization interface for irreversible inhibition of HIV-1 protease” (Bioorg Med Chem Lett, 2000):
Positions of bridges follow the written chain, without caps; N, C: chain ends. Non-standard residues stand in square brackets, D forms with d. Residues, ends and D or L forms follow the SMILES beside them. Chains are numbered I, II in the order given. ξ: configuration not given here. *: point of attachment. S(3-COOH-4-NO2-phenyl) = O=C(O)c1cc(S*)ccc1[N+](=O)[O-]; C16 diacid = O=C(O)CCCCCCCCCCCCCCC(=O)*; Thr(3ξ) = CC(O)[C@H](N)C(=O)O; ξP = O=C(O)C1CCCN1

Columns and labels:
[1] = biological target: Human immunodeficiency virus type 1 protease (Human immunodeficiency virus 1) (UniProt Q72874); experiment: Maximal inactivation rate of compound tested against HIV-1 protease
[2] = biological target: Human immunodeficiency virus type 1 protease (Human immunodeficiency virus 1) (UniProt Q72874); experiment: Inhibitory concentration of compound resulting in half-maximal inactivation of HIV-1 protease

Molecule `CC[C@H](C)[C@H](NC(=O)[C@H](CCC(N)=O)NC(=O)C1CCCN1C(=O)CCCCCCCCCCCCCCC(=O)N[C@@H](CO)C(=O)N[C@H](C(=O)N[C@@H](CC(C)C)C(=O)N[C@@H](CC(N)=O)C(=O)N[C@@H](CSSc1ccc([N+](=O)[O-])c(C(=O)O)c1)C(=O)O)[C@@H](C)O)C(=O)N[C@H](C(=O)N[C@@H](CC(C)C)C(=O)N[C@@H](Cc1c[nH]c2ccccc12)C(=O)O)C(C)O` (some centres not stated) (I: [ξP]QI[Thr(3ξ)]LW-OH / II: STLNC(S(3-COOH-4-NO2-phenyl))-OH; linker I:N-II:N via C16 diacid) has a Vinact [1] of 0.012 min⁻¹ and a K inact [2] of 3.7 µM.
